Source: ChEMBL document CHEMBL1144817, “Mirabalin, [corrected] an antitumor macrolide lactam from the marine sponge Siliquariaspongia mirabilis” (J Nat Prod, 2008)
The source made the active and inactive calls. No cut-off for these calls is given here.

Key:
HCT-116 = assay: Antitumor activity against human HCT116 cells; type: functional, cell-based
Candida albicans = assay: Antimicrobial activity against Candida albicans; type: functional, organism-based
[1] = Antiproliferative activity against green monkey kidney cells; type: cell-based; conditions: chlorocebus aethiops

In the case of `CO[C@@H]1[C@@H]2O[C@H](C[C@@H](O)[C@H](C)[C@@H](O)/C(C)=C/[C@H](C)[C@H](O)/C=C/CC(O)CC(C(NC(=O)CC(C)CCC(C)C(O)/C(C)=C/C(C)[C@@H](O)[C@H](NC(=O)/C=C/C(C)(C)C(=O)[C@@H](C)[C@@H](O)C(C)C)[C@@H](O)C(C)C)C(C)O)OC(=O)C(C(O)C(=O)O)NC(=O)/C=C/C=C/C=C/C=C/C=C/[C@H]2OC)C[C@@H]1C` (stereo partly drawn) [MIRABILIN MACROLIDE LACTUM], the IC50 (HCT-116) is reported as 270 nM, the Activity (Candida albicans) is reported as “inactive” and the Activity [1] is reported as “Not Active”.
